From ChEMBL document CHEMBL5724914, “Linking interpersonal differences in gut microbiota composition and drug biotransformation activity” (2024) come the findings set out here.

For data set [1] the following is noted: human gut metagenome, 24 h, 2 µM.
Data set [2] in a line: The drug is tested on Z-023 corresponding to metagenome with ENA study accession number: PRJEB37062 and ENA sample accession number: ERS12561822 for biotransformation under anaerobic condition. The drug concentrations were measured over 9 timepoints collected between 0 and 24 hours of incubation by liquid-chromatography-coupled mass spectrometry (LC–MS). Particulars: 2 µM.

Data set [3] in a line: The drug is tested on Z-020 corresponding to rabbit gut metagenome with ENA study accession number: PRJEB37062 and ENA sample accession number: ERS12561819 for biotransformation under anaerobic condition. The drug concentrations were measured over 9 timepoints collected between 0 and 24 hours of incubation by liquid-chromatography-coupled mass spectrometry (LC–MS). Particulars: 2 µM.

Data set [4] in a line: The drug is tested on Z-002 corresponding to rabbit gut metagenome with ENA study accession number: PRJEB37062 and ENA sample accession number: ERS12561802 for biotransformation under anaerobic condition. The drug concentrations were measured over 9 timepoints collected between 0 and 24 hours of incubation by liquid-chromatography-coupled mass spectrometry (LC–MS). The note with it: 2 µM.

The conditions of data set [5]: human gut metagenome, 24 h, 2 µM. This is another data set of the same source.
For data set [6] the following is noted: human gut metagenome, 24 h, 2 µM. This is another data set of the same source.
A short description of data set [7]: The drug is tested on Z-012 corresponding to metagenome with ENA study accession number: PRJEB37062 and ENA sample accession number: ERS12561812 for biotransformation under anaerobic condition. The drug concentrations were measured over 9 timepoints collected between 0 and 24 hours of incubation by liquid-chromatography-coupled mass spectrometry (LC–MS). The note with it: 2 µM.

The conditions of data set [8]: human gut metagenome, 24 h, 2 µM. This is another data set of the same source.
A short description of data set [9]: The drug is tested on Z-006 corresponding to mouse gut metagenome with ENA study accession number: PRJEB37062 and ENA sample accession number: ERS12561806 for biotransformation under anaerobic condition. The drug concentrations were measured over 9 timepoints collected between 0 and 24 hours of incubation by liquid-chromatography-coupled mass spectrometry (LC–MS). Particulars: 2 µM.

A short description of data set [10]: The drug is tested on Z-005 corresponding to metagenome with ENA study accession number: PRJEB37062 and ENA sample accession number: ERS12561805 for biotransformation under anaerobic condition. The drug concentrations were measured over 9 timepoints collected between 0 and 24 hours of incubation by liquid-chromatography-coupled mass spectrometry (LC–MS). The note with it: 2 µM.

For data set [11] the following is noted: human gut metagenome, 24 h, 2 µM. This is another data set of the same source.
For data set [12] the following is noted: human gut metagenome, 24 h, 2 µM. This is another data set of the same source.
Data set [13] is described as follows: The drug is tested on Z-019 corresponding to rat gut metagenome with ENA study accession number: PRJEB37062 and ENA sample accession number: ERS12561818 for biotransformation under anaerobic condition. The drug concentrations were measured over 9 timepoints collected between 0 and 24 hours of incubation by liquid-chromatography-coupled mass spectrometry (LC–MS). The note with it: 2 µM.

For data set [14] the following is noted: human gut metagenome, 24 h, 2 µM. The source holds these as a separate data set.
The conditions of data set [15]: human gut metagenome, 24 h, 2 µM. This is another data set of the same source.
For data set [16] the following is noted: human gut metagenome, 24 h, 2 µM. The source holds these as a separate data set.
Data set [17] is described as follows: The drug is tested on Z-021 corresponding to metagenome with ENA study accession number: PRJEB37062 and ENA sample accession number: ERS12561820 for biotransformation under anaerobic condition. The drug concentrations were measured over 9 timepoints collected between 0 and 24 hours of incubation by liquid-chromatography-coupled mass spectrometry (LC–MS). Particulars: 2 µM.

For data set [18] the following is noted: human gut metagenome, 24 h, 2 µM. The source holds these as a separate data set.
The conditions of data set [19]: human gut metagenome, 24 h, 2 µM. This is another data set of the same source.
For data set [20] the following is noted: human gut metagenome, 24 h, 2 µM. The source holds these as a separate data set.
Note: call rule not given here.

Turning to `CC(C)NCC(O)c1ccc(NS(C)(=O)=O)cc1` (stereo not given) [SOTALOL], the “Bacterial Biotransformation” value in data set [1], in [2], in data set [3], in data set [4], in data set [5] and in data set [6] was “Compound NOT metabolized” in each case. Further, the “Bacterial Biotransformation” value in data set [7], in data set [8], in data set [9], in data set [10], in [11] and in data set [12] was “Compound NOT metabolized” in each case. Besides, the “Bacterial Biotransformation” value in data set [13], in [14], in [15], in [16], in [17] and in data set [18] was “Compound NOT metabolized” each time. The “Bacterial Biotransformation” value in [19] and in data set [20] was “Compound NOT metabolized” each time.

Turning to `CCN1CCCC1CNC(=O)c1cc(S(N)(=O)=O)ccc1OC` (stereo not given) [SULPIRIDE], the “Bacterial Biotransformation” value was “Compound metabolized” in data set [1]; “Compound NOT metabolized” in data set [2]; “Compound NOT metabolized” in [3]; “Compound metabolized” in data set [4]; “Compound metabolized” in data set [5]; “Compound metabolized” in data set [6]. Also, the “Bacterial Biotransformation” value in data set [7], in [8], in data set [9], in data set [10], in data set [11] and in [12] was “Compound NOT metabolized” throughout. Besides, the “Bacterial Biotransformation” value in [13] is on record as “Compound NOT metabolized”; in [14] it was “Compound NOT metabolized”; in data set [15], “Compound metabolized”; in data set [16], “Compound NOT metabolized”; in [17] it was “Compound NOT metabolized”; in data set [18], “Compound NOT metabolized”. In addition, the “Bacterial Biotransformation” value in data set [19] is reported as “Compound NOT metabolized”; in [20], “Compound metabolized”.

For `CNS(=O)(=O)Cc1ccc2[nH]cc(CCN(C)C)c2c1.O=C(O)CCC(=O)O` [SUMATRIPTAN SUCCINATE], the “Bacterial Biotransformation” value in data set [1] is “Compound NOT metabolized”; in [2], “Compound NOT metabolized”; in [3], “Compound NOT metabolized”; in data set [4], “Compound metabolized”; in data set [5] it was “Compound NOT metabolized”; in [6], “Compound metabolized”. Moreover, the “Bacterial Biotransformation” value in data set [7], in [8], in data set [9], in data set [10], in data set [11] and in data set [12] was “Compound NOT metabolized” each time. Further, the “Bacterial Biotransformation” value in data set [13] is recorded as “Compound NOT metabolized”; in data set [14], “Compound NOT metabolized”; in data set [15], “Compound metabolized”; in data set [16], “Compound NOT metabolized”; in data set [17], “Compound NOT metabolized”; in [18], “Compound metabolized”. Moreover, the “Bacterial Biotransformation” value is listed as “Compound NOT metabolized” in data set [19] and “Compound metabolized” in [20].

As to `Nc1c2c(nc3ccccc13)CCCC2` [TACRINE], the “Bacterial Biotransformation” value is “Compound NOT metabolized” in [1]; “Compound NOT metabolized” in data set [2]; “Compound NOT metabolized” in data set [3]; “Compound metabolized” in data set [4]; “Compound metabolized” in [5]; “Compound metabolized” in [6]. Moreover, the “Bacterial Biotransformation” value in data set [7] is “Compound NOT metabolized”; in data set [8] it was “Compound NOT metabolized”; in [9], “Compound NOT metabolized”; in data set [10], “Compound NOT metabolized”; in data set [11], “Compound metabolized”; in [12] it was “Compound NOT metabolized”. Besides, the “Bacterial Biotransformation” value in [13] is listed as “Compound NOT metabolized”; in data set [14] it was “Compound metabolized”; in data set [15], “Compound metabolized”; in data set [16] it was “Compound metabolized”; in data set [17], “Compound NOT metabolized”; in data set [18], “Compound metabolized”. Moreover, the “Bacterial Biotransformation” value was “Compound NOT metabolized” in data set [19] and “Compound metabolized” in data set [20].

`Cc1ccc(S(=O)(=O)NC(=O)NN2CCCCCC2)cc1` [TOLAZAMIDE]: the “Bacterial Biotransformation” value in [1] is recorded as “Compound metabolized”; in [2], “Compound metabolized”; in data set [3], “Compound NOT metabolized”; in data set [4], “Compound metabolized”; in data set [5] it was “Compound metabolized”; in [6], “Compound metabolized”. For the same compound, the “Bacterial Biotransformation” value in [7] is on record as “Compound metabolized”; in data set [8] it was “Compound NOT metabolized”; in [9], “Compound metabolized”; in [10] it was “Compound metabolized”; in data set [11] it was “Compound metabolized”; in [12], “Compound metabolized”. The “Bacterial Biotransformation” value was “Compound NOT metabolized” in data set [13]; “Compound metabolized” in data set [14]; “Compound metabolized” in [15]; “Compound metabolized” in data set [16]; “Compound metabolized” in data set [17]; “Compound metabolized” in data set [18]. Besides, the “Bacterial Biotransformation” value in data set [19] is “Compound NOT metabolized”; in data set [20] it was “Compound metabolized”.

On to `CCOC(=O)[C@H](CCc1ccccc1)N[C@@H](C)C(=O)N1[C@H](C(=O)O)C[C@H]2CCCC[C@@H]21` [TRANDOLAPRIL], for which the “Bacterial Biotransformation” value in [1], in data set [2], in data set [3], in data set [4], in [5] and in data set [6] was “Compound metabolized” each time. The “Bacterial Biotransformation” value is given as “Compound NOT metabolized” in data set [7]; “Compound NOT metabolized” in data set [8]; “Compound NOT metabolized” in data set [9]; “Compound metabolized” in [10]; “Compound metabolized” in data set [11]; “Compound NOT metabolized” in [12]. Besides, the “Bacterial Biotransformation” value in data set [13] is “Compound NOT metabolized”; in [14] it was “Compound metabolized”; in [15], “Compound metabolized”; in data set [16] it was “Compound metabolized”; in data set [17], “Compound NOT metabolized”; in data set [18], “Compound metabolized”. In addition, the “Bacterial Biotransformation” value is given as “Compound NOT metabolized” in data set [19] and “Compound metabolized” in data set [20].
